In PMC11446937, “Bacteria from the Amycolatopsis genus associated with a toxic bird secrete protective secondary metabolites” (Nature Communications, 2024):

Key:
C. albicans SC5314 = test: Disc-diffusion antimicrobial assay, ecologically relevant indicator strains; type: cell-based, Candida albicans; conditions: Suppl. Table 16, pure compounds 10 mg/mL in DMSO, 5 µl per disc, control Amph B 10 µg/mL (DMSO/H2O), DMSO control 0, n=1
C. albicans C.A. = test: Disc-diffusion antimicrobial assay, clinically relevant indicator strains; type: cell-based; conditions: Amph B 10 µg/mL (DMSO/H2O)
Description: (§1) Disc-diffusion antimicrobial activity assays against clinically relevant indicator strains.
(§2) Pure compounds (1 mg/mL in DMSO or 50% MeOH) were tested for their antimicrobial activity against a variety of bacterial and fungal indicator strains: B. subtilis 6633 (Bs), S. aureus SG511 (Sa1), E. coli SG458 (Ec), P. aeruginosa K799/61 (Pa), S. aureus 134/94 (MRSA) (Sa2), E. faecalis 1528 (VRSA) (Ef), Mycobacterium vaccae 10670 (Mv), Sporobomyces salmonicolor 549 (Ss), C. albicans C.A. (Ca), and Penicillium notatum JP36 (Pn). On each disc, 50 µl compound solution (50 µg) were applied. Antimicrobial activity was determined by measuring the inhibition zone surrounding the disc in mm (n=3).
(§3) Bs: B. subtilis 663, Sa1: S. aureus SG511, Ec: E. coli SG458, Pa: P. aeruginosa K799/61, Sa2: S. aureus 134/94 (MRSA), Ef: E. faecalis 1528 (VRSA), Mv: M. vaccae 10670, Ss: S. salmonicolor 549, Ca: C. albicans C.A., Pn: P. notatum JP36. P: colonies in the inhibition zone, p: single colonies in the inhibition zone. A: no to low inhibition, n.t.: not tested.
(§4) B. subtilis 663, Sa1: S. aureus SG511, Ec: E. coli SG458, Ca: C. albicans C.A., P: colonies in the inhibition zone, […]

Penicillium notatum JP36 = test: as above; type: cell-based; conditions: Suppl. Table 17, 1 mg/mL in DMSO, 50 µl (50 µg) per disc, Amph B 10 µg/mL (DMSO/H2O), DMSO solvent control itself 12P, n=3
Description: as §1, §2, §3, §4

[1] = test system: Sporobomyces salmonicolor 549; test: as above; type: cell-based; conditions: Suppl. Table 17, 1 mg/mL in DMSO, 50 µl (50 µg) per disc, Amph B 10 µg/mL (DMSO/H2O), DMSO solvent control itself 13P, n=3
Description: as §1, §2, §3, §4

K. rhizophila DSM11926 = test: Disc-diffusion antimicrobial assay, ecologically relevant indicator strains; type: cell-based, Kocuria rhizophila; conditions: Suppl. Table 16, pure compounds 10 mg/mL in DMSO, 5 µl per disc, control Cip 5 µg/mL (HCl), DMSO control 0, n=1
[2] = test system: B. thuringiensis DSM104061; test: as above; type: cell-based, Bacillus thuringiensis; conditions: Suppl. Table 16, pure compounds 10 mg/mL in DMSO, 5 µl per disc, control Cip 5 µg/mL (HCl), DMSO control 0, n=1
P. monteilii DSM1388 = test: as above; type: cell-based, Pseudomonas monteilii; conditions: Suppl. Table 16, pure compounds 10 mg/mL in DMSO, 5 µl per disc, control Cip 5 µg/mL (HCl), DMSO control 0, n=1
B. licheniformis DSM13 = test: as above; type: cell-based, Bacillus licheniformis; conditions: Suppl. Table 16, pure compounds 10 mg/mL in DMSO, 5 µl per disc, control Cip 5 µg/mL (HCl), DMSO control 0, n=1
ZIKV NS2B-NS3 = conditions: 200 µM
sortase A (SrtA) = conditions: 200 µM
P. aeruginosa K799/61 = conditions: Suppl. Table 17; disc diffusion; 1 mg/mL in DMSO, 50 µl (50 µg) per disc; Cip 5 µg/mL (H2O/HCl); DMSO solvent control itself 12P; n=3
cruzain = test: Fluorimetric protease inhibition assay; type: biochemical, Trypanosoma cruzi; conditions: 200 µM, 10 min, mean ± standard deviation, n=3
E. coli SG458 = test: Disc-diffusion antimicrobial assay, clinically relevant indicator strains; conditions: Suppl. Table 17, 1 mg/mL in DMSO, 50 µl (50 µg) per disc, Cip 5 µg/mL (H2O/HCl), DMSO solvent control itself 12P, n=3
B. subtilis 6633 = test: as above; conditions: Suppl. Table 17, 1 mg/mL in DMSO, 50 µl (50 µg) per disc, Cip 5 µg/mL (H2O/HCl), DMSO solvent control itself 12P, n=3
S. aureus 134/94 (MRSA) = test: as above; conditions: Suppl. Table 17, 1 mg/mL in DMSO, 50 µl (50 µg) per disc, Cip 5 µg/mL (H2O/HCl), DMSO solvent control 0, n=3
SARS-CoV PLpro = conditions: 200 µM; fluorimetric, 10 min; mean ± standard deviation, n=3
DENV2 NS2B-NS3 = test: Fluorimetric protease inhibition assay; type: biochemical; conditions: 200 µM, 10 min, mean ± standard deviation, n=3
[3] = test system: Mycobacterium vaccae 10670; test: Disc-diffusion antimicrobial assay, clinically relevant indicator strains; conditions: Suppl. Table 17, 1 mg/mL in DMSO, 50 µl (50 µg) per disc, Cip 5 µg/mL (H2O/HCl), DMSO solvent control itself 11P, n=3
SARS-CoV2 Mpro = conditions: 200 µM; fluorimetric, 10 min; mean ± standard deviation, n=3
S. aureus SG511 = test: Disc-diffusion antimicrobial assay, clinically relevant indicator strains; conditions: Suppl. Table 17, 1 mg/mL in DMSO, 50 µl (50 µg) per disc, Cip 5 µg/mL (H2O/HCl), DMSO solvent control itself 11P, n=3
rhodesain = conditions: 200 µM
cathepsin B = test: Fluorimetric protease inhibition assay; type: biochemical; conditions: 200 µM, 10 min, mean ± standard deviation, n=3
cathepsin L = test: Fluorimetric protease inhibition assay; type: biochemical; conditions: 200 µM, 10 min, mean ± standard deviation, n=3
urokinase (uPA) = test: Fluorimetric protease inhibition assay; type: biochemical; conditions: 200 µM, 10 min, mean ± standard deviation, n=3
[4] = Suppl. Table 17, disc diffusion, 1 mg/mL in DMSO, 50 µl (50 µg) per disc, DMSO solvent control 0, n=3

| Compound | inhibition zone, Ca2 (C. albicans SC5314) [mm] | inhibition zone, Ca (C. albicans C.A.; [4]) [mm] | inhibition zone, Pn (Penicillium notatum JP36) [p] | inhibition zone, Ss [1] [p] | inhibition zone, Kr (K. rhizophila DSM11926) [mm] | inhibition zone, Bt [2] [mm] | inhibition zone, Pm (P. monteilii DSM1388) [mm] | inhibition zone, Bl (B. licheniformis DSM13) [mm] | Protease inhibition rate, SrtA (sortase A (SrtA)) | Protease inhibition rate, Cruzain (cruzain) [%] | inhibition zone, Ec (E. coli SG458) | inhibition zone, Bs (B. subtilis 6633) [mm] | inhibition zone, Sa2 (S. aureus 134/94 (MRSA)) [mm] | Protease inhibition rate, PLpro (SARS-CoV) (SARS-CoV PLpro) [%] | Protease inhibition rate, DENV2 (DENV2 NS2B-NS3) [%] | Protease inhibition rate, Mpro (SARS-CoV2) (SARS-CoV2 Mpro) [%] | inhibition zone, Sa1 (S. aureus SG511) [mm] | Protease inhibition rate, Rhodesain (rhodesain) | Protease inhibition rate, Cathepsin B (cathepsin B) [%] | Protease inhibition rate, Cathepsin L (cathepsin L) [%] | other results |
| --- | --- | --- | --- | --- | --- | --- | --- | --- | --- | --- | --- | --- | --- | --- | --- | --- | --- | --- | --- | --- | --- |
| C[C@@H]1[C@H](O)[C@@H](C)/C=C/C=C/C=C/C=C/C=C/C=C/C=C/[C@H](O[C@@H]2O[C@H](C)[C@@H](O)[C@H](N)[C@@H]2O)C[C@@H]2O[C@](O)(C[C@@H](O)C[C@@H](O)[C@H](O)CC[C@@H](O)C[C@@H](O)CC(=O)O[C@H]1C)C[C@H](O)[C@H]2C(=O)O [Amph B, Amphotericin B, reference compound] | 20 | 20 | 18 | 17 | – | – | – | – | – | – | – | – | – | – | – | – | – | – | – | – | inhibition zone, Ca (C. albicans C.A.; Suppl. Table 18, compound mixtures, total conc. 1 mg/mL in 50% MeOH, solvent control 0, n=1): 21 mm |
| O=C(O)c1cn(C2CC2)c2cc(N3CCNCC3)c(F)cc2c1=O [Cip, Ciprofloxacin, reference compound] | – | – | – | – | 22 | 28 | 33 | 35 | – | – | – | – | – | – | – | – | – | – | – | – | – |
| Pachycephalamide A [Compound 1] | 0 | – | 11 | 15 | 0 | 0 | 0 | 0 | 12.86 ± 2.35 | 64.85 ± 1.50 | 0 mm | 0 | 0 | 1.01 ± 1.74 | 8.57 ± 3.83 | 12.82 ± 8.66 | 0 | 55.29 ± 2.15 | 55.19 ± 2.16 | 61.88 ± 2.85 | Protease inhibition rate, ZIKV (ZIKV NS2B-NS3): 7.99 ± 3.53; inhibition zone, Pa (P. aeruginosa K799/61): 18P; inhibition zone, Mv [3]: 0 mm; Protease inhibition rate, uPA (urokinase (uPA)): 8.32 ± 4.90% |
| Pachycephalamide B [Compound 2] | 0 | 0 | 13 | 14 | 0 | 0 | 0 | 0 | 61.07 ± 4.93 | 49.62 ± 3.44 | 15P | 0 | 0 | 14.94 ± 1.31 | 29.25 ± 7.00 | 57.34 ± 9.94 | 0 | 47.71 ± 2.73 | 54.94 ± 2.96 | 50.42 ± 1.21 | Protease inhibition rate, ZIKV (ZIKV NS2B-NS3): 29.95 ± 3.36; inhibition zone, Pa (P. aeruginosa K799/61): 18P; Protease inhibition rate, uPA (urokinase (uPA)): 0 ± 0% |
| Pachycephalamide C [Compound 3] | 0 | 0 | 13 | 22 | 0 | 0 | 0 | 0 | 14.00 ± 4.62 | 63.82 ± 1.43 | 15P | 0 | 0 | 0 ± 0 | 9.19 ± 3.06 | 9.25 ± 7.28 | 0 | 58.33 ± 1.36 | 56.16 ± 6.18 | 62.51 ± 4.09 | Protease inhibition rate, uPA (urokinase (uPA)): 0 ± 0% |
| Pachycephalamide D [Compound 4] | 0 | 0 | 12 | 25 | 0 | 0 | 0 | 0 | 28.78 ± 4.59 | 73.97 ± 1.54 | 13P | 0 | 0 | 2.05 ± 2.29 | 33.81 ± 3.08 | 24.32 ± 2.62 | 0 | 72.76 ± 1.07 | 73.50 ± 4.05 | 78.67 ± 2.19 | Protease inhibition rate, ZIKV (ZIKV NS2B-NS3): 35.04 ± 1.21; inhibition zone, Pa (P. aeruginosa K799/61): 18P; inhibition zone, Mv [3]: 0 mm; Protease inhibition rate, uPA (urokinase (uPA)): 0.56 ± 0.90% |
